Results as given in paper PMC5365645, “Preclinical Pharmacokinetics and Pharmacodynamic Target of SCY-078, a First-in-Class Orally Active Antifungal Glucan Synthesis Inhibitor, in Murine Models of Disseminated Candidiasis” (Antimicrobial Agents and Chemotherapy, 2017).
Values after ≈ are worked out from the molar mass of the structure shown. Values joined by “and” are separate entries in the source; they are usually repeats but may differ in a detail not shown here. Identical values can stand only once. Like-named read-outs stand apart in the source and are kept apart here.

What was measured:
C. albicans CLY18600 = assay: Single delayed-dose treatment model of disseminated candidiasis; assay type: in vivo, mice; conditions: single dose 16 h after infection, tissue burden 96 h after treatment, regression analysis
[1] = In vitro metabolic stability in hepatic microsomes; assay type: in vitro ADME, dog; conditions: for remaining at 0.5 h, 1 µM: read-out: % remaining after 30 min
Experimental: The metabolic stability of SCY-078 was assessed after incubation with mouse, rat, dog, and human liver microsomes (Table 2) ([10]). […] The half-lives in rodent, dog, and human liver microsomes were ≥125, ≥29, and ≥42 min, respectively.
The metabolic stability of SCY-078 was evaluated with male and female mouse, male rat, male and female dog, and mixed-gender human liver microsomes (XenoTech, Lenexa, KS). SCY-078 (1 μM) was incubated with pooled liver microsomes (0.5 mg protein/ml) for 0, 5, 10, 20, and 30 min at 37°C in the presence of NADPH. Aliquots were taken at each sampling time point and extracted with 5 volumes of ice-cold acetonitrile containing the internal standard (d9-SCY-078, 125 ng/ml). Supernatants from the incubation mixtures were analyzed for the parent compound by LC-MS/MS according to the conditions described below. The metabolic competency of microsomal preparations was established using the control compounds 7-ethoxycoumarin, propranolol, and verapamil. The in vitro intrinsic clearance (CLint), the CLint scaled to the in vivo intrinsic clearance (CL′int), and the half-life were determined for SCY-078 incubated with microsomes from each species.

pKa values = assay type: physicochemical
logD = assay type: physicochemical
in vivo = assay: in vivo; set-up: species or system Wistar Han rats; conditions: Wistar Han, rat; for half-life: t1/2
Experimental: The pharmacokinetics and bioavailability of SCY-078 were evaluated in uninfected mouse, rat, and dog after p.o. and i.v. administration. The in vivo phases of the PK studies were performed at either […] (Waltham, MA) or MPI Research (Mattawan, MI) after an Institutional Animal Care and Use Committee (IACUC) review. […] and MPI Research are Association for Assessment and Accreditation of Laboratory Animal Care International (AAALAC)-approved facilities. […] The peak concentration (Cmax), the time to maximum concentration (Tmax), the half-life, and the AUC were determined from composite mean plasma concentration-time data for rodents and individual plasma concentration-time data for dogs. All doses and plasma concentrations of SCY-078 are presented as free base. Male and female Wistar Han rats (n = 3/sex/group/time point) weighing 0.329 to 0.398 kg (males) or 0.187 to 0.244 kg (females) received a single 5-mg/kg dose of SCY-078 as an i.v. injection in the lateral tail administered over 5 min or an oral dose of 20 mg/kg as described above. Blood specimens were collected from four animals/time point/group using a sparse sampling strategy via the sublingual vein at time intervals to 72 h postdosing and processed as described above.

[2] = Volume of distribution after i.v. administration; conditions: in vivo, iv, Rhesus monkey, no source reference printed, read-out: Vd ss
Description: TABLE 7 Volume of distribution for SCY-078 and echinocandins after i.v. administration | column: Vd ss (liters/kg)^a / SCY-078

[3] = test system: C. parapsilosis isolate CP 20519.069; set-up: method as in PMID 25512406; conditions: cited from earlier work
[4] = Immediate treatment murine model of disseminated candidiasis; conditions: DBA/2N, mouse, plasma, po
C. albicans MY1055 = assay: as above
[5] = both sexes, pooled liver microsomes, dog liver microsomes, summary of male and female
[6] = pooled liver microsomes, female dog liver microsomes
[7] = pooled liver microsomes, male dog liver microsomes
[8] = Study A, 6.25 mg/kg p.o. BID, day 7
[9] = Study A, 12.5 mg/kg p.o. BID, day 7
[10] = Study A, Efficacious: projected assuming linearity
[11] = Study B, 6.25 mg/kg p.o. BID, day 7
[12] = Study B, 12.5 mg/kg p.o. BID, day 7
[13] = Study B, Efficacious: projected assuming linearity
[14] = Study C, 6.25 mg/kg p.o. BID, day 7

SMILES: CC(C)[C@@H](C)[C@@]1(C)CC[C@]2(C)[C@H]3CC[C@@H]4[C@@]5(COC[C@@]4(C)[C@@H](OC[C@](C)(N)C(C)(C)C)[C@H](n4ncnc4-c4ccncc4)C5)C3=CC[C@@]2(C)[C@@H]1C(=O)O [SCY-078, (1S,4aR,6aS,7R,8R,10aR,10bR,12aR,14R,15R)-15-[[(2R)-2-amino-2,3,3-trimethylbutyl]oxy]-8-[(1R)-1,2-dimethylpropyl]-14-[5-(4-pyridinyl)-1H-1,2,4-triazol-1-yl]-1,6,6a,7,8,9,10,10a,10b,11,12,12a-dodecahydro-1,6a,8,10a-tetramethyl-4H-1,4a-propano-2H-phenanthro[1,2-c]pyran-7-carboxylic acid]
- Dose achieving stasis endpoint (C. albicans CLY18600): 8.97 mg/kg
- half-life at 1 μM [1, 5]: ≥ 0.483 h
- microsomal CLint at 1 μM [1, 5]: ≤ 48 µL/min/mg
- CLint scaled at 1 μM ([1]; both sexes, pooled liver microsomes, dog liver microsomes, summary of male and female, read-out: CL′int (CLint scaled to in vivo intrinsic clearance)): ≤ 0.069 mL/min/kg
- remaining at 0.5 h, 1 µM ([1]; female dog liver microsomes): 84%
- remaining at 0.5 h, 1 µM ([1]; male dog liver microsomes): 49%
- half-life at 1 μM [1, 6]: 1.53 h
- microsomal CLint at 1 μM [1, 6]: 15 µL/min/mg
- half-life at 1 μM [1, 7]: 0.483 h
- microsomal CLint at 1 μM [1, 7]: 48 µL/min/mg
- pKa (pKa values; carboxylic acid): 5.5
- pKa (pKa values; primary amine): 9
- pKa (pKa values; pyridine): 2.4
- logD (logD; at PI): 4.9
- logD (logD; pH 7.3): ~6.4
- AUC(0-inf) (in vivo; both sexes, iv, 5 mg/kg): 11700 ng·h/mL
- AUC(0-t) (in vivo; both sexes, iv, 5 mg/kg): 10300 ng·h/mL
- Vd (in vivo; both sexes, iv, 5 mg/kg): 4.7 L/kg
- clearance (in vivo; both sexes, iv, 5 mg/kg): 7.33 mL/min/kg
- half-life (in vivo; both sexes, iv, 5 mg/kg): ~8.7 h
- AUC(0-inf) (in vivo; both sexes, po, 20 mg/kg): 20800 ng·h/mL
- AUC(0-t) (in vivo; both sexes, po, 20 mg/kg): 16400 ng·h/mL
- Cmax (in vivo; both sexes, po, 20 mg/kg): 1010 ng/mL
- Tmax (in vivo; both sexes, po, 20 mg/kg): 8 h
- bioavailability (in vivo; both sexes, po, 20 mg/kg, Bioavailability): ~45%
- half-life (in vivo; both sexes, po, 20 mg/kg): ~9.1 h
- Dose normalized AUC0–∞ to a 1-mg/kg dose (in vivo; both, iv): ~2.4 µg·h/mL
- t1/2 (in vivo; both, iv, 5 mg/kg): 8.7 h
- Vd [2]: 4.4 L/kg
- MIC [3]: 0.25 µg/mL (≈ 0.342 µM)
- AUC(0-t) ([4]; 6.25 mg/kg, Plasma AUC0–24, Study A, 6.25 mg/kg p.o. BID, after dose 13 day 7): 6190 ng·h/mL and 8.48 µM·h
- AUC(0-t) ([4]; 6.25 mg/kg, Plasma AUC0–24, Study B, 6.25 mg/kg p.o. BID, after dose 13 day 7): 3270 ng·h/mL and 4.48 µM·h
- AUC(0-t) ([4]; 6.25 mg/kg, Plasma AUC0–24, Study C, 6.25 mg/kg p.o. BID, after dose 13 day 7): 11000 ng·h/mL and 15.1 µM·h
- AUC(0-t) ([4]; 12.5 mg/kg, Plasma AUC0–24, Study A, 12.5 mg/kg p.o. BID, after dose 13 day 7): 19700 ng·h/mL and 27 µM·h
- AUC(0-t) ([4]; 12.5 mg/kg, Plasma AUC0–24, Study B, 12.5 mg/kg p.o. BID, after dose 13 day 7): 16200 ng·h/mL and 22.2 µM·h
- AUC(0-t) ([4]; Plasma AUC0–24, Study A, Efficacious: projected efficacious exposure assuming linearity): 12900 ng·h/mL and 17.7 µM·h
- AUC(0-t) ([4]; Plasma AUC0–24, Study B, Efficacious: projected efficacious exposure assuming linearity): 9710 ng·h/mL and 13.3 µM·h
- Kidney tissue burden (C. albicans MY1055; [8]): 2.78 log10 CFU/g of tissue
- Reduction from sham treatment (C. albicans MY1055; [8]): 3.69 log10 CFU/g of tissue
- % animals sterilized (C. albicans MY1055; Study A, 6.25 mg/kg p.o. BID, day 7, five animals per group): 40%
- Kidney tissue burden (C. albicans MY1055; [9]): 2.23 log10 CFU/g of tissue
- Reduction from sham treatment (C. albicans MY1055; [9]): 4.24 log10 CFU/g of tissue
- % animals sterilized (C. albicans MY1055; Study A, 12.5 mg/kg p.o. BID, day 7, five animals per group): 80%
- % animals sterilized (C. albicans MY1055; [10]): 60%
- Kidney tissue burden (C. albicans MY1055; [10]): 2.51 log10 CFU/g of tissue
- Reduction from sham treatment (C. albicans MY1055; [10]): 4 log10 CFU/g of tissue
- Kidney tissue burden (C. albicans MY1055; [11]): 3.52 log10 CFU/g of tissue
- Reduction from sham treatment (C. albicans MY1055; [11]): 3.35 log10 CFU/g of tissue
- % animals sterilized (C. albicans MY1055; Study B, 6.25 mg/kg p.o. BID, day 7, five animals per group): 0%
- Kidney tissue burden (C. albicans MY1055; [12]): 2.2 log10 CFU/g of tissue
- Reduction from sham treatment (C. albicans MY1055; [12]): 4.67 log10 CFU/g of tissue
- % animals sterilized (C. albicans MY1055; Study B, 12.5 mg/kg p.o. BID, day 7, five animals per group): 100%
- % animals sterilized (C. albicans MY1055; [13]): 50%
- Kidney tissue burden (C. albicans MY1055; [13]): 2.86 log10 CFU/g of tissue
- Reduction from sham treatment (C. albicans MY1055; [13]): 4.01 log10 CFU/g of tissue
- Kidney tissue burden (C. albicans MY1055; [14]): 2.61 log10 CFU/g of tissue
- Reduction from sham treatment (C. albicans MY1055; [14]): 4.35 log10 CFU/g of tissue
- % animals sterilized (C. albicans MY1055; Study C, 6.25 mg/kg p.o. BID, day 7, five animals per group): 60%
- Free-drug (f) AUC0–24 (C. albicans MY1055; efficacy target, fraction bound 99.8% in mouse plasma): 0.0224 ± 0.0032 µg·h/mL
- Mean therapeutic exposure (plasma AUC0–24) across all models (C. albicans MY1055; mean of immediate-treatment, delayed-single-dose and delayed-fractionated-dose models): 14.3 µM·h
